Measured values reported in patent publication US20180243309A1, “TOPICAL ANTIVIRAL COMPOSITIONS” (Topical Remedy, LLC, priority 2015, published 2018).

Columns and labels:
HSV-1, strain E-377 [1] = test: Orofacial HSV-1 infection in SKH-1 mice: virus titers of orofacial swabs (CPE microtiter assay on rabbit kidney cells); type: in vivo; conditions: for mean virus titer ± standard deviation, Day 4 am: Day 4, am (before treatments); for mean virus titer ± standard deviation, Day 4 pm: Day 4, pm (after treatments); for mean virus titer ± standard deviation, Day 5 am: Day 5, am (before treatments); for mean virus titer ± standard deviation, Day 5 pm: Day 5, pm (after treatments); for mean virus titer ± standard deviation, Day 6 am: Day 6, am (before treatments); for mean virus titer ± standard deviation, Day 6 pm: Day 6, pm (after treatments); for Mean Peak Titer Score ± SD: orofacial swabs; for #Virus Positive/#Inoculated / Titer-Day AUC: orofacial swabs days 2-8 and 10
Text: (§1) To determine the effect of treatment on cutaneous viral replication, severity of lesions is scored from days 1-21 and swabs of the snout area are taken on days 2-8 and 10. […] All drug studies are placebo or vehicle controlled.
(§2) During the post-challenge phase, animals were examined daily and lesions scored for severity and samples taken for quantitation of orofacial HSV replication.
To determine the effect of treatment on HSV-1 replication on the orofacial area, swabs of the area were obtained on days 2 through 8 and 10 post-viral challenge. On treatment days, swabs were obtained at least 3 hours following the final treatment. Swabs were placed in tubes containing 2.0 ml of media, vortexed, and frozen at −70° C. until titrated for HSV. […] Wells were seeded with 10^4 cells per well and inoculated in triplicate 24 h later. The plates were read under a microscope five days after viral inoculation and the presence/absence of viral CPE in each well noted. A TCID50 value was calculated using Reed-Muench Methodology.
To determine the effect of treatment on HSV-1 replication from the lesions on the orofacial area, swabs of the area were obtained at least 3 hours after treatment on days when mice are treated. […] Samples were taken before treatments and after treatments.
(§3) Mortality rates were analyzed by Fisher's exact test and mean day of death using Mann-Whitney U rank sum test. Infection rates, peak lesion scores, peak virus titers, areas under the curve for virus titer-day and lesion score-day between control and treated animals will be compared using the Mann-Whitney U Rank Sum Test. A P-value of 0.05 or less will be considered significant.
In addition, the immediate post treatment effects on lesion derived virus titers was analyzed using the mixed linear model with a P-value of 0.05 or less considered as significant. This difference in virus recovered from animals before and after treatments for all treatment days was used to calculate significance.

HSV-1, strain E-377 [2] = test: Orofacial HSV-1 infection in SKH-1 mice: mortality and facial lesion scores; type: in vivo; conditions: for Mortality Number: dead/total, topical 3 times daily Days 4-6, 20 min intervals, acyclovir 3 times daily for 5 days from 24 h after inoculation; for #With Lesions/#Inoculated: facial lesions, days 1-21; for Mean Peak Lesion Score ± SD: lesion score scale 0.0-5.0
Experimental: In this model, mice are anesthetized with a ketamine/xylazine mixture and implanted with an electronic microchip for individual identification. […] This procedure is performed carefully to prevent bleeding. […] Following this procedure, animals are returned to their cages and observed until recovery.
as §1, §2
Female SKH-1 mice (Charles River Laboratories, Raleigh, N.C.) were assigned randomly to groups. Each efficacy group contained 10 animals. Animals were anesthetized with ketamine-xylazine, implanted with an identification microchip, and has the orofacial area abraded using a Dremmel tool with an engraving bit.
To determine the effect of treatment on the development and severity of lesions, severity of lesions were graded on a 0.0 to 5.0 scale in 0.5 increments, according to the scale below. The presence or absence of lesions and severity of lesions was recorded daily beginning day 1 through day 21 post-challenge. Animals were observed daily for signs of systemic viral disease.
as §3, with “Test.” for “Test. A P-value of 0.05 or less will be considered significant.”

[3] = same regimens as Mortality Number

Compound: Nc1nc2c(ncn2COCCO)c(=O)[nH]1 [5% Acyclovir, Acyclovir, reference compound]
- mean virus titer ± standard deviation, Day 4 am (HSV-1, strain E-377 [1]): 0.2 ± 0.8^ TCID50
- mean virus titer ± standard deviation, Day 4 pm (HSV-1, strain E-377 [1]): 0.0 ± 0.0 TCID50
- mean virus titer ± standard deviation, Day 5 am (HSV-1, strain E-377 [1]): 0.0 ± 0.0 TCID50
- mean virus titer ± standard deviation, Day 5 pm (HSV-1, strain E-377 [1]): 0.0 ± 0.0 TCID50
- mean virus titer ± standard deviation, Day 6 am (HSV-1, strain E-377 [1]): 0.0 ± 0.0 TCID50
- mean virus titer ± standard deviation, Day 6 pm (HSV-1, strain E-377 [1]): 0.0 ± 0.0 TCID50
- Mean Peak Titer Score ± SD (HSV-1, strain E-377 [1]): 0.6 ± 0.1
- #Virus Positive/#Inoculated (HSV-1, strain E-377 [1]): 3/10
- Mortality Number (HSV-1, strain E-377 [2]): 0/10
- #With Lesions/#Inoculated (HSV-1, strain E-377 [2]): 0/10
- Mean Peak Lesion Score ± SD (HSV-1, strain E-377 [2]): 0.0 ± 0.0
- Mortality Percent (HSV-1, strain E-377 [2]; [3]): 0%

Compound: Ethyl alcohol [Compound 1]
- mean virus titer ± standard deviation, Day 4 am (HSV-1, strain E-377 [1]): 5.1 ± 1.0^ TCID50
- mean virus titer ± standard deviation, Day 4 pm (HSV-1, strain E-377 [1]): 5.1 ± 1.5 TCID50
- mean virus titer ± standard deviation, Day 5 am (HSV-1, strain E-377 [1]): 5.7 ± 0.4 TCID50
- mean virus titer ± standard deviation, Day 5 pm (HSV-1, strain E-377 [1]): 5.6 ± 0.6 TCID50
- mean virus titer ± standard deviation, Day 6 am (HSV-1, strain E-377 [1]): 4.9 ± 0.7 TCID50
- mean virus titer ± standard deviation, Day 6 pm (HSV-1, strain E-377 [1]): 4.0 ± 0.8 TCID50
- Mean Peak Titer Score ± SD (HSV-1, strain E-377 [1]): 6.0 ± 0.2
- #Virus Positive/#Inoculated (HSV-1, strain E-377 [1]): 10/10
- Titer-Day AUC (HSV-1, strain E-377 [1]): 32.2
- Mortality Number (HSV-1, strain E-377 [2]): 8/10
- #With Lesions/#Inoculated (HSV-1, strain E-377 [2]): 10/10
- Mean Peak Lesion Score ± SD (HSV-1, strain E-377 [2]): 3.0 ± 0.0↑
- Lesion-Day AUC (HSV-1, strain E-377 [2]; lesion score scale 0.0-5.0, days 1-21): 41.1↑
- MDD (Mean Day of Death) (HSV-1, strain E-377 [2]; [3]): 7.9
- Mortality Percent (HSV-1, strain E-377 [2]; [3]): 80%

Compound: Glycolic acid [Compound 2]
- mean virus titer ± standard deviation, Day 4 am (HSV-1, strain E-377 [1]): 4.2 ± 1.3^ TCID50
- mean virus titer ± standard deviation, Day 4 pm (HSV-1, strain E-377 [1]): 4.2 ± 1.6 TCID50
- mean virus titer ± standard deviation, Day 5 am (HSV-1, strain E-377 [1]): 5.5 ± 0.4 TCID50
- mean virus titer ± standard deviation, Day 5 pm (HSV-1, strain E-377 [1]): 5.1 ± 0.6 TCID50
- mean virus titer ± standard deviation, Day 6 am (HSV-1, strain E-377 [1]): 5.2 ± 0.6 TCID50
- mean virus titer ± standard deviation, Day 6 pm (HSV-1, strain E-377 [1]): 4.4 ± 0.5 TCID50
- Mean Peak Titer Score ± SD (HSV-1, strain E-377 [1]): 5.3 ± 0.5
- #Virus Positive/#Inoculated (HSV-1, strain E-377 [1]): 10/10
- Titer-Day AUC (HSV-1, strain E-377 [1]): 33.3
